What is called EC50 is the concentration giving half of the maximal effect.

Results on five compounds are retold here after patent publication US12459910B2, “Mitochondrial therapeutic agents” (ARIZONA BOARD OF REGENTS ON BEHALF OF ARIZONA STATE …, priority 2021, dated 2025).

The structures appear in SMILES notation.

Test [1] concerns FRDA lymphocytes. Put plainly: RSL3 challenge lipid peroxidation assay (C11-BODIPY581/591, FACS). Conditions: Homo sapiens; FRDA lymphocytes (GM15850); compounds overnight, then 2 μM RSL3; C11-BODIPY581/591 flow cytometry; read-out: RSL3 challenge lipid peroxidation inhibition EC50. It is filed as cell-based. An excerpt:
(§1) All compounds evaluated for their biological effects were >95% pure. Chemicals employed for the bioassays, including ferrostatin-1 (Fer-1), liproxstatin-1 (Lip-1), RSL3 ((1S,3R)-RSL3), erastin, α-tocopherol, carbonyl cyanide 4-(trifluoromethoxy) phenylhydrazone (FCCP) and galactose, were purchased from Sigma Aldrich. Fluorescent probes, including C11-BODIPY581/591(4,4-difluoro-5-(4-phenyl-1,3-butadienyl)-4-bora-3a,4a-diaza-s-indacene-3-propionic acid), and The Live/Dead® Viability/Cytotoxicity Kit were obtained from Invitrogen (Thermo Fisher Scientific). Luciferase-linked ATPase enzymatic assay (ViaLight Plus proliferation/cytoxicity kit was purchased from Lonza (Walkersville, MD). FRDA lymphocytes (catalogue number GM15850) and FRDA fibroblasts cells (catalogue number GM04078) were obtained from Coriell Cell Repositories (Camden, NJ, USA).
(§2) Lymphocytes were cultured in RPMI-1640 medium (Gibco, Life Technologies, Grand Island, NY) with 15% fetal calf serum, 2 mM glutamine (HyClone, South Logan, UT) and 1% penicillin-streptomycin antibiotic supplement (Cellgro, Manassas, VA). Cells were passaged daily to maintain them in log phase growth and kept at a nominal concentration of 5-10×105 mL. FRDA fibroblasts were cultured in 64% (v/v) Eagle's minimal essential medium (MEM), lacking phenol red with Eagle's balanced salt (EBS) and 25% M199 with EBS (Gibco) supplemented with 10% (v/v) fetal bovine serum albumin (HyClone), 1% penicillin-streptomycin antibiotic mix, 10 μg/mL insulin (Gibco), 10 ng/mL […] (EGF), 10 ng/mL basic fibroblast growth factor (Gibco) and 2 mM glutamine. Cells were grown in 75 cm2 culture flasks and incubated at 37° C. in a humidified atmosphere of 5% CO2 in air. Cells were fed twice weekly and split every third day at a ratio of 1:3. All experiments were conducted with FRDA cells from passages 8-14.
Lipid peroxidation in live cells can be visualized using the oxidation-sensitive fluorescent probe C11-BODIPY581/591. Upon oxidation of this probe, the fluorescence properties shift from a red-emitting form (595 nm) to a green emitting form (520 nm). Changes in fluorescence indirectly reflect the oxidation of unsaturated fatty acids. A quantitative analysis of lipid peroxidation in FRDA lymphocytes, challenged with 2 μM RSL3 in the presence or absence of the test compounds for 2 h was obtained by FACS analysis using the specific dye C11-BODIPY581/591. Briefly, FRDA lymphocytes (5×10^5 cell/mL) were treated with the test compounds (dissolved in DMSO and added to the assay medium at final DMSO concentrations <0.5%) at varying concentrations and incubated at 37° C. overnight in a humidified atmosphere containing 5% CO2 in air. Cells were treated with 2 μM of RSL3 and then incubated for 90 minutes in a humidified atmosphere containing 5% CO2 in air at 37° C. Cells were treated with 2 μM of C11-BODIPY581/591 in phenol red-free RPMI-1640 media and incubated at 37° C. in the dark for 30 min. […] Cells were resuspended in 300 μL of PBS and were analyzed immediately by flow cytometry (C6 Accuri, BD Biosciences, San Jose, CA), to monitor the change in intensity of the C11-BODIPY581/591-green (oxidized) fluorescence signal using 488 nm excitation laser and FL1-H channel 538 nm emission filter. In each analysis, 10,000 events were recorded. […] Final data output was a calculated EC50 value determined graphically from the dose-response curves using the nonlinear regression curve fit analysis model.
(Flow cytometry measures light scatter and fluorescence of single cells or particles in a stream.)

Test [2] has as its system FRDA fibroblasts. Put plainly: Erastin cell survival assay (cellular ATP, ViaLight Plus). It is filed as cell-based. Conditions: FRDA fibroblasts (GM04078); compounds 12 h before 4 μM erastin; viability by ATP 48 h after erastin; read-out: Erastin challenge cell survival EC50.
From the text: as §1, §2
The ability of the test compounds to confer cytoprotection to ferroptosis inducer erastin in FRDA fibroblasts was determined by assessing the depletion of cellular ATP using a commercially available luciferase-linked ATPase enzymatic assay (ViaLight® Plus proliferation/cytotoxicity Kit (Lonza, Walkersville, MD) according to the directions of the manufacturer. Briefly, FRDA fibroblasts (GM04078) were plated in 96-well microtiter plates at a density of 3000 cell/well (50 μL) (Costar, Corning, NY). The plates were incubated at 37° C. for 24 h in an atmosphere having 95% humidity and 5% CO2 to allow attachment of the cells to the culture plates and to allow the cell density reach 60-70% confluency. The next day the test compounds were dissolved in DMSO, diluted to the appropriate concentrations in fresh cell culture media and the cells were then treated with the test compounds (final DMSO concentration was <0.5%). […] Cell viability in each well was determined 48 h after erastin addition by measuring the intracellular ATP content using the ViaLight®-Plus ATP monitoring reagent kit (Lonza, Walkersville, MD) according to the manufacturer's protocol. The ATP concentration was determined by reading luminescence using a luminator (Clarity™ luminescence microplate reader). The percent of viable cells relative to non-treated control was determined for each well. […] Final data output was a calculated EC50 value determined graphically from the dose-response curves using the nonlinear regression curve fit analysis model.

`CCCCCCCCc1cc2nc3ccc(=O)cc-3sc2cc1N(C)C` [Example 2, 7-(Dimethylamino)-8-octyl-3H-phenothiazin-3-one]: the EC50 in test [1] was determined as 14 ± 1 nM; in test [2], 15 ± 3 nM.

Take `CCCCCCCCCc1cc2nc3ccc(=O)cc-3sc2cc1N(C)C` [Example 3, 7-(Dimethylamino)-8-nonyl-3H-phenothiazin-3-one]: the EC50 in test [1] amounted to 12 ± 1 nM; in test [2], 11 ± 1 nM.

With `CCCCCCCCCCc1cc2nc3ccc(=O)cc-3sc2cc1N(C)C` [Example 1, 8-Decyl-7-(dimethylamino)-3H-phenothiazin-3-One], the results for the EC50 in test [1] and in test [2] were 9 ± 1 nM and 10 ± 1 nM, respectively.

For the compound `CCCCCCCCCCCCCCCCc1cc2nc3ccc(=O)cc-3sc2cc1N(C)C` [Example 5, 7-(Dimethylamino)-8-hexadecyl-3H-phenothiazin-3-one], the 50% effective concentration (EC50) was 25 ± 3 nM in test [1] and 22 ± 2 nM in test [2].

Regarding `CCCCCCCCCCCCc1cc2nc3ccc(=O)cc-3sc2cc1N(C)C` [Example 4, 7-(Dimethylamino)-8-dodecyl-3H-phenothiazin-3-one], the EC50 in test [1] was found to be 16 ± 1 nM; in test [2] it was 15 ± 1 nM.
